# What was measured:
# HEK293 cells [1] = test: Pharmacological blocking of MM 1-induced calcium responses; type: cell-based; details: role: inhibitor, MM 1 + light
# Method: FIGS. 14A-14J—Mechanistic study of MM-induced ICW. (a) Schematic of possible mechanisms by which calcium can enter the cytoplasm. Prepared with Biorender.com. (b) Confocal microscope images of HEK293 cells treated with MM 1, MitoTracker Green, ER Tracker Red, and CellMask Deep Red. Scale bars are both 20 μm and apply to the images in the same row. (c-h) Calcium waves elicited by MM 1-treated cells (c) in calcium-free PBS, (d) in RR (1 μM), (e) in Gd^3+ (50 μM), (f) after treatment of cells with Th (1 μM), (g) in Ry (100 μM), (h) in XeC (25 μM), (i) in U-73 (10 μM), (j) after pre-treatment of cells with Cyto D (2 μM). The solid line represents the calcium profiles averaged from six independent cells. The shaded region represents the standard error of the mean (n=6). Stimuli were presented after 30 s of imaging in each case, and the time of stimulus presentation is indicated by the vertical cyan line. […] All stimuli were delivered with a pulse width of 250 ms to a circular area of diameter 5 μm at a power ranging from 3.2×10^2 W cm^−2 to 5.1×10^2 W cm^−2. For all plots, the cyan line indicates the time of stimulus presentation. Controls and experimental groups were imaged and stimulated on the same day using the same conditions and with the same batch of cells. Error bars in the bar graphs represent the standard deviation of the mean of n=3 experiments (at least 6 stimulated cells per experiment). Statistical analyses were performed using a one-tailed Welch's t-test. * P-value<0.05, ** P-value<0.01, *** P-value<0.001, **** P-value<0.0001.
# Imaging was conducted in imaging extracellular buffer (iECB; 119 mM NaCl, 5 mM KCl, 10 mM HEPES, 2 mM CaCl2, 1 mM MgCl2 (pH 7.2); 320 mOsm). Imaging in calcium-free medium was conducted in phosphate-buffered saline. Cells were prepared for imaging by seeding a 35 mm Ibidi imaging dish with ~50,000 cells in 1 mL of DMEM, and grown at 37 °C, 5% CO2 for 2 days. Prior to imaging, cells were incubated with dyes and/or molecules resuspended in complete growth medium at the appropriate concentration (MM 1 (8 μM), MM 2 (8 μM), MM 3 (24 μM), MM 4 (8 μM), Fluo-4 (2 μM)). MM and Fluo-4 were loaded into cells for 45 min. Cells treated with thapsigargin were exposed for 30 min after MM and Fluo-4 loading. Cells treated with organelle-targeting dyes were exposed for 5 min after MM loading. Ruthenium red and Gd^3+ were included in the imaging medium during stimulation and were associated with cells for 10 min prior to imaging. At the end of incubation, this medium was replaced with the iECB. Unless otherwise specified, all experiments were replicated in triplicate.
# Pharmacological Experiments: In pharmacological blocking experiments, cells were loaded with MM and Fluo-4 as previously described. Typical imaging experiments in previously described extracellular buffer were then conducted as a positive control. Then, the imaging buffer was replaced, and the cells were treated as required for each experiment. After a brief recovery period, the cells were imaged again, and six different cells were stimulated. Experiments in calcium-free imaging buffer used phosphate buffered saline. Thapsigargin (Th: 1 μM) and Cytochalasin D (Cyto D; 2 μM) were incubated with cells in complete growth medium for 1 h (Th) or 2 h (Cyto D) before imaging. Ruthenium red (RR; 1 μM), gadolinium (Gd; 50 μM), ryanodine (Ry; 100 μM), xestospongin C (XeC; […]), and U-73122 (U-73; 10 μM) were administered directly into the imaging medium. Cells were incubated in the medium for ~5 min prior to imaging. Traces presented are representative results across at least six cells from single experiments, while bar graphs represent the average results across at least three distinct experiments.
# HEK293 cells [2] = test: ROS scavengers on MM 1-induced calcium waves; type: cell-based; details: melatonin 100 μM, thiourea 50 mM, L-ascorbic acid 2 mM; 1 h; MM 1, 4.5×10^2 W cm^−2
# Method: Normalized fluorescence intensity traces of HEK293 cells treated with MM 1 and Fluo-4 and administered (a) melatonin (Mel; 100 μM), (b) thiourea (ThioU; 50 mM), and (c) L-ascorbic acid (Vit C; 2 mM). The shaded region indicates the standard error of n=6 stimulation attempts. Dark traces indicate positive controls collected prior to treatment. Stimulation was administered at 4.5×10^2 W cm^−2. Cells were incubated with chosen ROS scavengers for 1 h prior to stimulation.
# C2C12 myotubes = test: C2C12 myotube contraction (image subtraction); type: cell-based, mouse
# Method: FIG. 35—Flow chart for the image subtraction process. First, the background is subtracted from the traces to account for drift during the course of the experiment (top row). After this, the traces are zeroed at the point of stimulation, and the area is calculated from the point of stimulation until the end of the experiment to yield the contraction magnitude. (bottom row).
# FIGS. 40A-40D—MMs induce contraction in C2C12 myotubes, a) Confocal microscopy images of Fluo-4 and b) image subtraction of brightfield images to highlight calcium release and contractile motion in three stimulated myotubes (indicated by the red arrows) immediately before stimulation (t=0) for 1.5 s with 400-nm light, as well as 10 s and 120 s after stimulation. Scale bar=30 μm. c) Magnitude of contraction of MM 1 compared to DMSO, MM 2, MM 3, and cells treated with 10 μM U-73122. d) Mechanism of skeletal muscle cell contraction.
# This method yielded images where the pixel intensity corresponds to movement over the course of the experiment (FIG. 40C), allowing us to easily visualize and quantify contraction.
# [3] = cited from earlier work
# [4] = UV-Vis absorbance of motors in DMSO; type: physicochemical
# Description: The UV-Vis spectrum of each motor was also acquired in DMSO (FIG. 37D) to ensure that the difference in absorbance at 400 nm was not the cause of larger or smaller responses.
# C2C12 myoblasts = test: Pathway inhibitors on MM-induced calcium release in C2C12 myoblasts; type: cell-based, mouse; details: role: inhibitor; for Effect on MM-induced calcium signaling: SQ22536 100 μM, cAMPS-Rp 200 μM
# Method: FIGS. 38A-38F—Calcium release in C2C12 myoblasts occurs by means of the IP3 pathway. Average normalized fluorescence intensity traces of C2C12 myoblasts before and after treatment with a) 10 μM U-73122 (PLC inhibitor), b) 100 μM gallein (GPCRβγ inhibitor), c) 1 μM FR900359 (GPCRα inhibitor), d) 200 μM cAMPS-Rp (cAMP antagonist, inhibits PKA activation), e) 100 μM SQ22536 (adenylyl cyclase inhibitor), and f) 1 μM nintedanib (RTK inhibitor).
# It was determined that MMs activate the IP3 pathway by inhibiting key proteins along the pathway. If inhibition of a specific protein decreases the magnitude of the observed calcium responses, then it can be assumed that the targeted protein played an important role in propagating the calcium signaling pathway that was initiated by MMs. […] When both gallein and FR900359 are used simultaneously, a similar decrease of ~50% also occurs (FIG. 33). […] This may occur either through direct MM activation or indirectly through MM activation of a different signaling pathway. It is known that RTKs can also activate PLC (Bill and Vines, 2020).
# The effect of cAMP pathway inhibition on the elicited calcium signaling responses was measured by using 100 μM SQ22536 to inhibit adenylyl cyclase (FIG. 38D) and 200 μM cAMPS-Rp (FIG. 38E), a cAMP antagonist that inhibits protein kinase A (PKA) activation. […] At this moment it cannot be concluded whether this effect is because MMs also activate the GPCRs associated with the cAMP pathway, or if inhibition of adenylyl cyclase and PKA naturally affects normal calcium signaling pathways, regardless of MM stimulation.
compound,measurement,setting,value
"[Gd+3] [Gd^3+, gadolinium]",Effect on MM-induced calcium responses,HEK293 cells [1]; Gd^3+ 50 μM,did not affect the observed responses
O=C1O[C@H]([C@@H](O)CO)C(O)=C1O [L-ascorbic acid],Effect of ROS scavenger on MM induced ICW,HEK293 cells [2],does not affect MM induced ICW
"CN(C)CCNc1ccc2c(c1)Sc1ccccc1C2=C1CCc2ccc3ccccc3c21 [MM 2 (fast, bidirectional)]",Myotube contraction,"C2C12 myotubes; 400-nm light 1.5 s, image subtraction",Strong cellular contraction did not occur
same,Rotation rate,[3],~ 3 MHz
same,Absorbance at 400 nm,[4],nearly identical absorbances at 400 nm
Nc1ncnc2c1ncn2C1CCCO1 (stereo not shown) [SQ22536],Effect on MM-induced calcium signaling,C2C12 myoblasts,small reduction in calcium signaling
"COc1ccc2c(c1)CC[C@@H]1[C@@H]2CC[C@]2(C)[C@@H](NCCCCCCN3C(=O)C=CC3=O)CC[C@@H]12 [U-73122, reference compound]",Myotube contraction magnitude with PLC inhibitor,"C2C12 myotubes; role: inhibitor, U73 (10 μM) with MM 1 + light",contraction magnitude equal to that of the DMSO control
same,Effect on MM-induced calcium responses,C2C12 myoblasts; U-73122 10 μM,completely abolished
Nc1ncnc2c1ncn2[C@@H]1O[C@@H]2CO[P@@](O)(=S)O[C@H]2[C@H]1O [cAMPS-Rp],Effect on MM-induced calcium signaling,C2C12 myoblasts,small reduction in calcium signaling
C=C1[C@@H](C)[C@H]2[C@H](Cc3ccccc3)NC(=O)[C@]23[C@H](OC(C)=O)/C=C/[C@@](C)(O)C(=O)[C@@H](C)C/C=C/[C@H]3[C@@H]1O [cytochalasin D],Effect on MM-induced calcium responses,"HEK293 cells [1]; cytochalasin D 2 μM, P=0.01762",inhibited
O=C1OC2(c3ccccc31)c1ccc(O)c(O)c1Oc1c2ccc(O)c1O [gallein],inhibition at 100 µM,"C2C12 myoblasts; Mus musculus, C2C12, gallein 100 μM, read-out: Reduction in observed calcium response",~50%
COc1ccc2[nH]cc(CCNC(C)=O)c2c1 [melatonin],Effect of ROS scavenger on MM induced ICW,HEK293 cells [2],does not affect MM induced ICW
COC(=O)c1ccc2c(c1)NC(=O)/C2=C(\Nc1ccc(N(C)C(=O)CN2CCN(C)CC2)cc1)c1ccccc1 [nintedanib],Effect on MM-induced calcium responses,C2C12 myoblasts; nintedanib 1 μM (RTK inhibition),no decrease in magnitude of the elicited calcium responses
N.N.N.N.N.N.N.N.N.N.N.N.N.N.[Cl-].[Cl-].[Cl-].[Cl-].[Cl-].[Cl-].[O-2].[O-2].[Ru+3].[Ru+3].[Ru+4] [ruthenium red],Effect on MM-induced calcium responses,HEK293 cells [1]; ruthenium red 1 μM (10 μM in Table 2),did not decrease the magnitude of MM-induced calcium responses
C/C=C(/C)C(=O)O[C@H]1C(C)=C2[C@H]([C@@H]1OC(=O)CCCCCCC)[C@@](C)(OC(C)=O)C[C@H](OC(=O)CCC)[C@@]1(O)[C@H]2OC(=O)[C@@]1(C)O [thapsigargin],Effect on MM-induced calcium responses,"HEK293 cells [1]; thapsigargin 1 μM, P=0.00257",did not show any measurable calcium flux upon light stimulation
NC(N)=S [thiourea],Effect of ROS scavenger on MM induced ICW,HEK293 cells [2],does not affect MM induced ICW
C1CCC[C@H]2CCCN3CC[C@@H](CCCCCC[C@@H]4CCCN5CC[C@@H](CC1)O[C@@H]45)O[C@@H]23 [xestospongin C],Effect on MM-induced calcium responses,"HEK293 cells [1]; XeC 25 μM (20 μM in Table 2), P=0.0167",significantly diminished the strength of cellular responses to MM
FR900359,Reduction in observed calcium response,C2C12 myoblasts; FR900359 1 μM,~ 50%
ryanodine,Effect on MM-induced calcium response amplitude,HEK293 cells [1]; ryanodine 100 μM,no effect on response amplitude
